Source: patent US11007237B2, “Agent for suppressing carbohydrate breakdown and absorption” (KOHAKU BIO TECHNOLOGY CO., LTD., priority 2017, dated 2021)
Blank lines part the entries; values can stand above or below the molecule they belong to.

Experiments:
Caco-2 cells = assay: Suppression test for glucose uptake by the intestinal epithelial-like cells (Caco-2 cells), Transwell glucose permeation; format: cell-based, human; conditions: for Glucose permeability (%) (n = 3): apical side, 2 hours, control = 100
Method: (§1) The extract obtained can be examined for action to suppress α-glucosidase activity, for example, by the following method. The extract is added to human colon cancer-derived cells (hereinafter referred to as Caco-2 cells) and the cells are cultured. The cultured cells are collected. With a crude enzyme solution thereof, sucrose or maltose serving as substrate is allowed to react. The amount of glucose generated is quantified by an enzyme method using glucose oxidase. An action to inhibit glucose uptake can be examined by the following method. To Caco-2 cells differentiated into the intestinal epithelial-like, glucose and the extract were simultaneously added. The amount of glucose taken in the cells or permeated through the cells is quantified by an enzyme method using glucose oxidase.
The test herein was carried out in accordance with the method of Konishi et al. (Konishi et al., Biosci. Biotechnol. Biochem., 67(4), 856-862, 2003). In DMEM culture medium, Caco-2 cells were suspended. The suspension was added in Transwell-COL of 12 mm diameter and 0.4 μm in pore size (manufactured by Corning Incorporated) (hereinafter referred to as Transwell) in a ratio of 1.0×10^5 cells/cm^2 to seed the cells. The cells were cultured under 95% air-5% carbon dioxide gas at 37° C. for 3 weeks while exchanging the medium at intervals of 2 to 3 days.
After an intercellular electrical resistance (TER value) was confirmed to be 350 Ω·cm^2 or more by Millicell ERS-2 resistance measurement system (manufactured by Merck Millipore), the amber extract obtained in Production Example 1 was dissolved in DMSO on the apical side so as to obtain a final concentration of 0.2, 1 and 2 mg/mL, and mixed with a solution obtained by dissolving D(+)-glucose in PBS (+) in a concentration of 0.5% (hereinafter referred to as the 0.5% glucose solution) (DMSO final concentration: 1%). The resultant mixed solutions each were added in an amount of 500 μL. DMSO was added to a 0.5% glucose solution so as to obtain a DMSO final concentration of 1% and treated. This was used as a control. Phlorizin n-hydrate derived from an apple (hereinafter referred to as phlorizin) was dissolved in DMSO so as to obtain a final concentration of 1 mg/mL and mixed with the 0.5% glucose solution. The resultant DMSO solution (DMSO final concentration: 1%) was treated and used as a positive control. Further, succinic acid was subjected to a glucose permeation suppression test in the amount corresponding to that contained in the amber extract. More specifically, the content of succinic acid in the amber extract obtained in Production Example 1 was calculated by use of analysis/preparative high performance liquid chromatographic apparatus and Fourier transform infrared spectrophotometer. As a result, the content rate of succinic acid was confirmed to be 2% or less. Then, succinic acid was dissolved in DMSO so as to obtain a final concentration of 0.02, 0.05 and 0.1 mg/mL and mixed with PBS (+)(DMSO final concentration: 1%) and treated. At each basolateral side, 500 μL of PBS (+) was added. These transwells were subjected to culture carried out under 95% air −5% carbon dioxide gas at 37° C. for 2 hours. Thereafter the amount of glucose permeated on the basolateral side was quantified by use of glucose CII test Wako. The glucose permeability of the control sample was regarded as 100 and the relative changes for the samples containing a test substance were calculated. After the test, the TER value was confirmed to be 350 Ω·cm^2 or more.

maltase = assay: Suppression test for maltase activity in Caco-2 cells; format: cell-based, human; conditions: for Maltase activity (%) (n = 3): Caco-2 cells treated 7 days, control = 100
Method: as §1
(§2) The test herein was carried out with reference to the method of OGAWA et al. (N. Ogawa et al., the Journal of Nutrition, 130: 507-513, 2000).
To Dulbecco's modified eagle medium (DMEM)(manufactured by Thermo Fisher Scientific K.K.), 10% fetal bovine serum (hereinafter referred to as FBS)(manufactured by Thermo Fisher Scientific K.K.), a 1% antibacterial agent (Penicillin-Streptomycin-L-Glutamine) (manufactured by FUJIFILM Wako Pure Chemical Corporation) and a 1% non-essential amino acid mixture (MEM Non-Essential Amino Acids) (manufactured by Thermo Fisher Scientific K.K.) were added to prepare a culture solution (hereinafter referred to as DMEM culture medium). In the DMEM culture solution (medium), Caco-2 cells were suspended. The suspension was added in 24-well plates (manufactured by TPP) in a ratio of 1.0×10^4 cells/cm^2 to seed the cells. The cells were cultured under 95% air/5% carbon dioxide gas at 37° C. for 8 to 10 days until the cultured cells reached confluency while exchanging the medium at intervals of 2 to 3 days. […] More specifically, the content of succinic acid in the amber extract obtained in Production Example 1 was calculated by analysis/preparative high performance liquid chromatographic apparatus and a Fourier transform infrared spectrophotometer. […]
(§3) Cells were collected with a lysis buffer (0.1 M phosphate buffer (pH6.8), 0.5% TritonX-100), allowed to stand still on ice for 20 minutes and centrifuged (10,000×g) at 4° C. for 30 minutes, and then, the supernatant was collected. […] Thereafter, the amount of the glucose generated was quantified in accordance with an enzyme method using glucose CII test Wako (manufactured by FUJIFILM Wako Pure Chemical Corporation). The sucrase activity and maltase activity were calculated, respectively, based on the production amount of glucose.

sucrase = target: T1, sucrase (Homo sapiens, UniProt P14410); assay: Suppression test for sucrase activity in Caco-2 cells; format: cell-based
T1 construct: Cells were collected with a lysis buffer (0.1 M phosphate buffer (pH6.8), 0.5% TritonX-100); endogenous in cells; host or cells: Caco-2 cells (Triton X-100 lysate supernatant, crude enzyme)
T1 sequence (P14410 whole entry): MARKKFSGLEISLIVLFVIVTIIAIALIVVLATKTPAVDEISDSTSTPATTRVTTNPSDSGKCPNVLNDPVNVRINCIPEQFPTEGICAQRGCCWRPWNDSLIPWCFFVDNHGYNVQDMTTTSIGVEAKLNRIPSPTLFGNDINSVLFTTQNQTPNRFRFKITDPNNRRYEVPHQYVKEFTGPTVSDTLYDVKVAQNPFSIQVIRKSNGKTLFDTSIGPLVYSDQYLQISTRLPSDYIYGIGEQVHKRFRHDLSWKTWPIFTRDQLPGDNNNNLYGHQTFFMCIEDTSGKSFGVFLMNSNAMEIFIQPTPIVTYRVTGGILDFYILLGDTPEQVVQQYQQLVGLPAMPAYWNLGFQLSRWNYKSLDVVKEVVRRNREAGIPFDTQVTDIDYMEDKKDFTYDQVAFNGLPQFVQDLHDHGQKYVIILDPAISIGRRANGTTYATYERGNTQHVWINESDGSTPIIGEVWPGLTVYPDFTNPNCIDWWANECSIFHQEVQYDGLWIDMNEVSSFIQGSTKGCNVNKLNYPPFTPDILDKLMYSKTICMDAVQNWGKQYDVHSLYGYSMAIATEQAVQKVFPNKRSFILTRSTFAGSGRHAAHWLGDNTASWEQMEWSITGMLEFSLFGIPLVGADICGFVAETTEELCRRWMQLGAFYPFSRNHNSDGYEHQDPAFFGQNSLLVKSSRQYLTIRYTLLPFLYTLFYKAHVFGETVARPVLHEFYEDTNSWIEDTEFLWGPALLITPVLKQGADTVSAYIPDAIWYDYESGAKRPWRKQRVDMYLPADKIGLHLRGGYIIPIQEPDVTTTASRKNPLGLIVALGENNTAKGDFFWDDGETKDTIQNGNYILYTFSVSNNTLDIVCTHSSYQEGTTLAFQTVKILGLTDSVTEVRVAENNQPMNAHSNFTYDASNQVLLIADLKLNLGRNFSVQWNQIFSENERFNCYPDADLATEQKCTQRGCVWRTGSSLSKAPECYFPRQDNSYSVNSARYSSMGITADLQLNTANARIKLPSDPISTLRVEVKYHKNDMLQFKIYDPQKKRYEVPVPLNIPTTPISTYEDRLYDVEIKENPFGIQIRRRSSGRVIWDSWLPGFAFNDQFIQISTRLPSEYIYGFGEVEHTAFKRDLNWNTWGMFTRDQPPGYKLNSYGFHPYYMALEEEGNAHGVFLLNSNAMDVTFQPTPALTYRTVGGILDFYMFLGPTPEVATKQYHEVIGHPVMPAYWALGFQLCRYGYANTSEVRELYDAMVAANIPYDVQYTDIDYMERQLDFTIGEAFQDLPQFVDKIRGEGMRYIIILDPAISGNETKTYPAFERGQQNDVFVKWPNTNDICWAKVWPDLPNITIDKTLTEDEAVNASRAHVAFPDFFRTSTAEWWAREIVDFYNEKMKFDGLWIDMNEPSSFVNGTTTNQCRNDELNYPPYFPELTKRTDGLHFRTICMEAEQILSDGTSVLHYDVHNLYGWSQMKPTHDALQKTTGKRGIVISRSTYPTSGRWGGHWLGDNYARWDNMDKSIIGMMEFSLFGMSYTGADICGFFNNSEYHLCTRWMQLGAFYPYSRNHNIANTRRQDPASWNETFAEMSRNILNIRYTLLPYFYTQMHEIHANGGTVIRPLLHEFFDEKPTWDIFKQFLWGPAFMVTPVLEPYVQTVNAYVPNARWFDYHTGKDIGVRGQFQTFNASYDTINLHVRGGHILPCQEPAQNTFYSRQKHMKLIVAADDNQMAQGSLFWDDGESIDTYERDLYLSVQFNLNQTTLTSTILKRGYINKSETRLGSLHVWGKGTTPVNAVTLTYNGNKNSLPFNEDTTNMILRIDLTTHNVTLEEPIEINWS
Method: as §1, §2
To Dulbecco's modified eagle medium (DMEM)(manufactured by Thermo Fisher Scientific K.K.), 10% fetal bovine serum (hereinafter referred to as FBS)(manufactured by Thermo Fisher Scientific K.K.), a 1% antibacterial agent (Penicillin-Streptomycin-L-Glutamine) (manufactured by FUJIFILM Wako Pure Chemical Corporation) and a 1% non-essential amino acid mixture (MEM Non-Essential Amino Acids) (manufactured by Thermo Fisher Scientific K.K.) were added to prepare a culture solution (hereinafter referred to as DMEM culture medium). In the DMEM culture solution (medium), Caco-2 cells were suspended. The suspension was added in 24-well plates (manufactured by TPP) in a ratio of 1.0×10^4 cells/cm^2 to seed the cells. The cells were cultured under 95% air/5% carbon dioxide gas at 37° C. for 8 to 10 days until the cultured cells reached confluency while exchanging the medium at intervals of 2 to 3 days. After the culture supernatant was removed by suction, the amber extract (50% ethanol extract) obtained in Production Example 1 was dissolved in dimethyl sulfoxide (hereinafter referred to as DMSO) so as to obtain a final concentration of 100 and 200 μg/mL. The DMSO solutions were mixed with DMEM culture medium (DMSO final concentration: 0.25%) and each added in an amount of 500 μL. DMSO was added to DMEM culture medium so as to obtain a DMSO final concentration of 0.25% and treated. This was used as a control. […] This was used as a positive control. In addition, the suppression test for sucrase/maltase activity was carried out by using succinic acid in the corresponding amount to that contained in amber extract. More specifically, the content of succinic acid in the amber extract obtained in Production Example 1 was calculated by analysis/preparative high performance liquid chromatographic apparatus and a Fourier transform infrared spectrophotometer. […]
as §3

[1] = Caco-2 cells, succinic acid in the amount corresponding to that contained in the amber extract

Compound: O=C(CCc1ccc(O)cc1)c1c(O)cc(O)cc1O[C@@H]1O[C@H](CO)[C@@H](O)[C@H](O)[C@H]1O [Phlorizin, Phlorizin n-hydrate]
Glucose permeability (%) (n = 3) (Caco-2 cells; 1 mg/mL, 0.5% glucose): 27.4 ± 1.8 %

Action to suppress maltase activity in Caco-2 cells (in words) (maltase; [1]): not confirmed
Suppression of glucose uptake / permeation in Caco-2 cells (in words) (Caco-2 cells; [1]): not confirmed
activity at 2 µg/mL (sucrase; 2 μg/mL, Caco-2 cells treated 7 days, control = 100, read-out: Sucrase activity (%) (n = 3)): 102 ± 3%
activity at 5 µg/mL (sucrase; 5 μg/mL, Caco-2 cells treated 7 days, control = 100, read-out: Sucrase activity (%) (n = 3)): 95.4 ± 1.4%
activity at 25 µg/mL (sucrase; 25 μg/mL, Caco-2 cells treated 7 days, control = 100, read-out: Sucrase activity (%) (n = 3)): 99.2 ± 2%
Action to suppress sucrase activity in Caco-2 cells (in words) (sucrase; [1]): not confirmed
Compound: O=C(O)CCC(=O)O [Succinic acid, succinic acid]
Maltase activity (%) (n = 3) (maltase; 2 μg/mL): 108.3 ± 1.5%
Maltase activity (%) (n = 3) (maltase; 5 μg/mL): 99.2 ± 1.3%
Maltase activity (%) (n = 3) (maltase; 25 μg/mL): 100.9 ± 2.1%
Glucose permeability (%) (n = 3) (Caco-2 cells; 0.02 mg/mL): 94.6 ± 1.6%
Glucose permeability (%) (n = 3) (Caco-2 cells; 0.05 mg/mL): 92.8 ± 3.2%
Glucose permeability (%) (n = 3) (Caco-2 cells; 0.1 mg/mL): 95.4 ± 2.5%

activity at 100 µg/mL (sucrase; 100 μg/mL, Caco-2 cells treated 7 days, control = 100, read-out: Sucrase activity (%) (n = 3)): 90.2 ± 4.1%
Compound: C[C@H]1O[C@H](O[C@H]2[C@H](O)[C@@H](O)[C@@H](O[C@H]3[C@H](O)[C@@H](O)C(O)O[C@@H]3CO)O[C@@H]2CO)[C@H](O)[C@@H](O)[C@@H]1N[C@H]1C=C(CO)[C@@H](O)[C@H](O)[C@H]1O (some centres unmarked) [ACA, Acarbose]
